Measured values reported in patent US8937058B2, “17-hydroxy-19-nor-21-carboxylic acid-steroid γ-lactone derivative, use thereof, and medicament containing the derivative” (priority 2007, dated 2015).
Where two headings read alike, the source gives them in different places.

Legend:
[1] = target: T1, mineralocorticoid receptor (Homo sapiens (Human), UniProt P08235); assay: Antimineralocorticoid action by transactivation test (MDCK luciferase reporter cells); assay type: cell-based; settings: in-vitro transactivation, 1 nM aldosterone
Procedure: 5. Determination of Antimineralocorticoid Action by Means of Transactivation Tests:
The antimineralocorticoid activity of the test substances was determined as for the transactivation tests described above.
The following modifications were undertaken: In this case reporter cell lines were used (MDCK cells) that express the human mineralocorticoid receptor, and transiently contain a reporter construct that contains luciferase under the control of a steroid hormone-responsive promoter.
For determination of antimineralocorticoid efficacy, 1 nM aldosterone (SIGMA A-6628, Lot 22H4033) was added to the cells, to achieve almost maximum stimulation of the reporter gene. Inhibition of the effect indicated a mineralocorticoid-antagonistic action of the substances (Table 2; for comparison, corresponding values for drospirenone (A)).

androgen receptor [2] = target: T2, androgen receptor (Homo sapiens (Human), UniProt P10275); settings: for IC50: read-out: Androgen receptor IC50, receptor binding, 3H-testosterone displacement; for Androgen receptor Competition factor: reference substance 3H-testosterone
Procedure: 3. Androgen Receptor Binding Test:
The test was carried out as in 1., with the following modifications: cytosol from androgen receptor-expressing insect cells (Hi5) was used, and the reference substance was ^3H-testosterone.

androgen receptor [3] = target: T2, androgen receptor; assay: cell-based; settings: for Androgen receptor Agonism efficacy / Androgen receptor Antagonism efficacy: in-vitro transactivation, PC3 cells; for Androgen receptor Antagonism efficacy: 0.05 nM R1881
Procedure: 6. Determination of Androgenic/Antiandrogenic Action by Means of Transactivation Tests:
The androgenic/antiandrogenic action of the test substances was determined as for the transactivation tests described above.
The following modifications were made: In this case reporter cell lines were used (PC3 cells) that express the androgen receptor, and a reporter construct that contains luciferase under the control of a steroid hormone-responsive promoter.
For determination of the antiandrogenic efficacy, 0.05 nM R1881 was added to the cells, in order to achieve almost maximum stimulation of the reporter gene.

[4] = target: fusion protein from the PR-ligand-binding domain and a Gal4-transactivation domain (Homo sapiens (Human), UniProt P06401); assay: cell-based
Procedure: 4. Determination of Progestational Action by Means of Transactivation Tests:
The test compounds were added eight hours later, and the cells were incubated with the compounds for 16 hours. The tests were carried out in triplicate. At the end of incubation the medium containing the effector was removed and replaced with lysis buffer. After luciferase assay substrate (Promega, #E1501) had been added, the 96-well plates were then put in a microplate luminometer (Pherastar, BMG Labtech), and the luminescence was measured. The IC50 values were evaluated using software for calculating dose-effect relations.

[5] = target: T1, mineralocorticoid receptor; assay: Mineralocorticoid receptor binding test (displacement of 3H-aldosterone, cytosol from Hi5 insect cells); settings: reference substance 3H-aldosterone
Procedure: 2. Mineralocorticoid Receptor Binding Test:
The test was carried out as in 1., with the following modifications: cytosol from mineralocorticoid receptor-expressing insect cells (Hi5) was used, and the reference substance was ^3H-aldosterone.

progesterone receptor = progesterone receptor (Homo sapiens (Human), UniProt P06401); settings: for Progesterone receptor (PR) Competition factor: CF of 1 = affinity of progesterone, CF >1 lower affinity; for CF PR/CF MR: ratio of the competition factors CF(PR) and CF(MR); for IC50: read-out: Progesterone receptor (PR) IC50, receptor binding, 3H-progesterone displacement
progesterone receptor, sequence (P06401 whole entry, species assumed): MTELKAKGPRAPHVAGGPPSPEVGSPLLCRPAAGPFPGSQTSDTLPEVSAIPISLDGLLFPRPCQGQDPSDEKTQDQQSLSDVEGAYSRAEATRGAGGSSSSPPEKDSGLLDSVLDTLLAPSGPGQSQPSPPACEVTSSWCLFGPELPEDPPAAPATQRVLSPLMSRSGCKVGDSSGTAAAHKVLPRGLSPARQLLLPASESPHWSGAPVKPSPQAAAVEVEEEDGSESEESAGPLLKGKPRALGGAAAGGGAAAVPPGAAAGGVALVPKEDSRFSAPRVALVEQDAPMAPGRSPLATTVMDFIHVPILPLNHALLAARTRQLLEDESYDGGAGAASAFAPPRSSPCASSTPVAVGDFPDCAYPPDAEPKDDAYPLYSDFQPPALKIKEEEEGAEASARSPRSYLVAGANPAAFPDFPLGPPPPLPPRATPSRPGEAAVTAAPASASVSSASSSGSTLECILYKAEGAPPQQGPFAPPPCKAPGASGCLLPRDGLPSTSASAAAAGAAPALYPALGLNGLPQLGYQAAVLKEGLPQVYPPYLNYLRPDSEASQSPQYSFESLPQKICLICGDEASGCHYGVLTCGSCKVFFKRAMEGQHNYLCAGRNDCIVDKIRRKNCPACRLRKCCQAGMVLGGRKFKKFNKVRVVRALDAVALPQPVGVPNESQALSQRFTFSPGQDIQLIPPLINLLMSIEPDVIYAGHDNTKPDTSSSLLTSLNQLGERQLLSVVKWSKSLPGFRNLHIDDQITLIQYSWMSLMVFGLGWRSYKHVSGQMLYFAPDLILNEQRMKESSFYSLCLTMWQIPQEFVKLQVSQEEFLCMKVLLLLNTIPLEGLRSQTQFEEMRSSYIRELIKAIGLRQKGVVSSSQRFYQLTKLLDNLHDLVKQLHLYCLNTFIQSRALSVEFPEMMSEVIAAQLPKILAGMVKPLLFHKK
Procedure: Progesterone Receptor Binding Test:
Using cytosol from progesterone receptor-expressing insect cells (Hi5), competitive binding to the progesterone receptor was determined from the ability to displace ^3H-progesterone as reference substance from the receptor.

T2 sequence (P10275 whole entry, species assumed): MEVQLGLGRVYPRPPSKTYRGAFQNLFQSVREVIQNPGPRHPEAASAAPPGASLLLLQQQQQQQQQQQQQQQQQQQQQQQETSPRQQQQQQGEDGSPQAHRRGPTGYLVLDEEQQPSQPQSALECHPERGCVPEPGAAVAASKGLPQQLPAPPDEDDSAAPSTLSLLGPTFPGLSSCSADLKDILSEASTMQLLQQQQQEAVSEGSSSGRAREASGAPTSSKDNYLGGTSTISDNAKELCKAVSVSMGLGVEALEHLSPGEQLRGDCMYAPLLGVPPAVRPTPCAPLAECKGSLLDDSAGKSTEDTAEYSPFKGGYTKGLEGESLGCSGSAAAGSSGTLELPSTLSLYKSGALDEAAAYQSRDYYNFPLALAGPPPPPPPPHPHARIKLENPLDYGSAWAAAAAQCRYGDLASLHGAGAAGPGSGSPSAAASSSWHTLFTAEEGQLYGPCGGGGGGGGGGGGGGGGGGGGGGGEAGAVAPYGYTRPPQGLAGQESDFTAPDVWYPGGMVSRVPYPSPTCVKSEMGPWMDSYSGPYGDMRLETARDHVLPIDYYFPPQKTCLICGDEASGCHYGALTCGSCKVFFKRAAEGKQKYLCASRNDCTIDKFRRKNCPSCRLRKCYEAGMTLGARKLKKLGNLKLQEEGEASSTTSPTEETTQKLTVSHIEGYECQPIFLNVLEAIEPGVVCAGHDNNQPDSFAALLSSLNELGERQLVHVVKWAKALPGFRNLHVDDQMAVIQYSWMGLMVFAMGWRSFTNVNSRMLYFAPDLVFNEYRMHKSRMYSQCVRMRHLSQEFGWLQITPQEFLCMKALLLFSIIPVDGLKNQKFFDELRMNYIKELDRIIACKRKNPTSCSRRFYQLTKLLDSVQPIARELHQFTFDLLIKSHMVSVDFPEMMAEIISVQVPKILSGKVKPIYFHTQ
fusion protein from the PR-ligand-binding domain and a Gal4-transactivation domain, sequence (P06401 679-913): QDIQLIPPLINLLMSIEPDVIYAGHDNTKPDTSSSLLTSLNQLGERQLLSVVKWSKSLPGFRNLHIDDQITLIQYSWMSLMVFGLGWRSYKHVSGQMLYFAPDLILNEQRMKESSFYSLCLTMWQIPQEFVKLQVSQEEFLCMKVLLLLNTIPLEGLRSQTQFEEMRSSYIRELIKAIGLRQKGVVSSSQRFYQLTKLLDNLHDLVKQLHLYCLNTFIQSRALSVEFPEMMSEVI
T1 sequence (P08235 whole entry): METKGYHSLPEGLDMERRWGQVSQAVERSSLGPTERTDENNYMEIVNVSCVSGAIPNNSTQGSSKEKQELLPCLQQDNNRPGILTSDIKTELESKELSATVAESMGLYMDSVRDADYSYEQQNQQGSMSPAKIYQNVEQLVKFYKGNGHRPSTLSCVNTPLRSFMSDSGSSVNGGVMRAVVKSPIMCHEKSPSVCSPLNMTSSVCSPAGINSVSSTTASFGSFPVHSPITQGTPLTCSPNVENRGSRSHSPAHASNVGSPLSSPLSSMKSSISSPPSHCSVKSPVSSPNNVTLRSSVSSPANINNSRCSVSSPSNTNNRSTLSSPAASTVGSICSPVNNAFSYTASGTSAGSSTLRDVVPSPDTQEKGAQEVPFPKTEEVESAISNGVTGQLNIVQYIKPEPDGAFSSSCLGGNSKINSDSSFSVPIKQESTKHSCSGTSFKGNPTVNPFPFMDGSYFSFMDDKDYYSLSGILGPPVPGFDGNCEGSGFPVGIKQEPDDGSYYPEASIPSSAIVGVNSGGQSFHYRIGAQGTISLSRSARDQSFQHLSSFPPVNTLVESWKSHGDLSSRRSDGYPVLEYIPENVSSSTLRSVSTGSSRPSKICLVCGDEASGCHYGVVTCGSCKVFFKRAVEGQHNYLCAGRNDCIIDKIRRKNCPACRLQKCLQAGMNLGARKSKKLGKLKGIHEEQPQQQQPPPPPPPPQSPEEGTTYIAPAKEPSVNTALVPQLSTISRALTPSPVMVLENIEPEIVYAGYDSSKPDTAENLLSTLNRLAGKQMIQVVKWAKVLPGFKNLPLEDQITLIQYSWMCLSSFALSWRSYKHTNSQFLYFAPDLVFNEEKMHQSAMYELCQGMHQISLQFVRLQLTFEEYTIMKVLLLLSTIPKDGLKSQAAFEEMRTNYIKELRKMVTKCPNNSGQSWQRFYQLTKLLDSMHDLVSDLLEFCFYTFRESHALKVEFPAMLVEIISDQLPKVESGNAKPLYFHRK

SMILES	Mineralocorticoid receptor Antagonism IC50 [1]	IC50 (androgen receptor [2])	Androgen receptor Competition factor (androgen receptor [2])	EC50 (androgen receptor [3])	IC50 (androgen receptor [3])	Androgen receptor Agonism efficacy (androgen receptor [3])	Androgen receptor Antagonism efficacy (androgen receptor [3])	EC50 [4]	Progesterone receptor Agonism efficacy ([4]; in-vitro transactivation, CHO K1 reporter cells)	Mineralocorticoid receptor (MR) Competition factor [5]	Progesterone receptor (PR) Competition factor (progesterone receptor)	CF PR/CF MR (progesterone receptor)	IC50 (progesterone receptor)	Mineralocorticoid receptor Antagonism efficacy [1]	IC50 ([1]; read-out: Mineralocorticoid receptor Antagonism IC50)	Progesterone receptor Agonism EC50 ([4]; in-vitro transactivation, CHO K1 reporter cells, 16 hours)
CC[C@]12CC[C@H]3[C@@H](CCC4=C(Cl)C(=O)CC[C@@H]43)[C@@H]1CC[C@@]21C=CC(=O)O1 [Example 13, 4-Chloro-17β-hydroxy-18-methyl-19-nor-17α-pregna-4,20(Z)-dien-3-one-21-carboxylic acid γ-lactone]	inactive	170 nM	8.3	57 nM	12 nM	33.71%	44.18%	1000 nM	25.3%	47.0	28.06	0.60	750 nM	–	–	–
C[C@]12CC[C@H]3[C@@H](CCC4=C(Cl)C(=O)CC[C@@H]43)[C@@H]1CC[C@@]21C=CC(=O)O1 [Example 14, 4-Chloro-17β-hydroxy-19-nor-17α-pregna-4,20(Z)-dien-3-one-21-carboxylic acid γ-lactone]	–	140 nM	7.5	100 nM	70.5 nM	22.74%	63.26%	–	–	39.0	53.06	1.36	1200 nM	21.6%	700 nM	inactive
